Where a chain is given by its changes, count along the chain named.
Columns and labels:
[1] = biological target: T1, WT human TP receptor (Homo sapiens, UniProt P21731); assay: Total inositol phosphate (IP) accumulation, WT receptor; format: cell-based; conditions: HEK293 cells, 30 min stimulation, value ±%CV
T1 construct: expressed in transfected cells; host or cells: HEK293
T1 sequence (P21731 1-343): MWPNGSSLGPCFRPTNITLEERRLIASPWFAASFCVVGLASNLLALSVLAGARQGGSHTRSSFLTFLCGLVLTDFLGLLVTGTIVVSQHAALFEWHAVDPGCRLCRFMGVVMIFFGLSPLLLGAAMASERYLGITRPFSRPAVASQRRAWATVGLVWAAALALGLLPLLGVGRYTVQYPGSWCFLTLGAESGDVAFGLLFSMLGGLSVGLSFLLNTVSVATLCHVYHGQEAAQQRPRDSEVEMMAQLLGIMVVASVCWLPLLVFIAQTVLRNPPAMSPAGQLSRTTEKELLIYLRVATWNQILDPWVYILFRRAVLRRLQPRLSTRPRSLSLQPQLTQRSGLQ
Method: Receptor expression and functional activity were monitored 48 hours after transfection. […] Heterologous competition studies involved concentrations of the indicated unlabeled ligands extending from 0.1 nM to 30 µM. After 30 min incubation at 25 °C, the reaction was stopped by aspiration of the medium, cells were washed with ice-cold PBS containing 0.2% (w/v) BSA and lysed in 0.5 N NaOH. Radioactivity was measured by liquid scintillation counting. Binding data were analyzed as described in Data and Statistical Analysis. Quantification of the total labeled inositol phosphates (IP) accumulation was performed using a conventional gravity flow column chromatography, as described previously, [19]. Briefly, the day before the assay, cells were labeled with 0,5 µCi of [myo-2-^3H]inositol (17 Ci/mmol) for 18–20 hours in serum-free, inositol-free DMEM containing 20 mM HEPES buffer, pH 7.4, and 0.5% (w/v) Albumax I. The day of the assay, media was replaced with serum-free, inositol-free DMEM containing 25 mM LiCl and cells stimulated for 30 min with the indicated agonists. After removal of the medium, cells were lysed with 10 mM formic acid and lysates were applied onto an anion exchange AG 1X-8 column, formate form, 200–400 mesh. The total IP fraction was then eluted with 2 M ammonium formate/formic acid buffer at pH 5 and radioactivity determined by liquid scintillation counting. Rescue experiments were performed essentially as above, except for a 18 hours incubation step with 1 µΜof […] followed by its removal by washing three times with ice-cold PBS containing 1 mM MgCl2 and 0.1 mM CaCl2 before starting the experiment.
(§1) All average results are presented as mean±S.E. When indicated, ANOVA followed by post-hoc test for multiple comparisons was performed. Data from radioligand binding were evaluated by a nonlinear, least-squares curve-fitting procedure using GraphPad Prism version 4, implemented with the n-ligand m-binding site model, as described in the LIGAND computer program. Concentration-response curves were evaluated using Prism 4, which use the four parameters logistic model as described in the ALLFIT program. Parameter errors are all expressed in percentage coefficient of variation (%CV) and calculated by simultaneous analysis of at least two different independent experiments performed in duplicate or triplicate. Parameter comparison has been performed on the base of the F test for extra sum of square principle. All curves shown are computer generated.

[2] = biological target: T1, WT human TP receptor; assay: BRET2 measurement of Gq protein activation, WT receptor; format: cell-based; conditions: HEK293 cells, value ±%CV
Source text: HEK 293 cells were co-transfected with vectors expressing the GFP^10-Gγ2, Gβ1, Gαq-Rluc8 and WT or E129V mutant of TP receptor to investigate direct G protein activation with an intramolecular bioluminescent resonance energy transfer (BRET^2) strategy. To avoid possible variations in the BRET signaling resulting from fluctuation in the relative expression levels of the energy donor and acceptor, we designed transfection conditions to maintain constant GFP^10 and Rluc8 expression and their ratios in each experimental set. Total fluorescence and luminescence were directly determined in an aliquot of the transfected cells using an Infinite F500 microplate reader (Tecan, Milan, Italy) as previously described. […] 48 hours after transfection, cells were washed once with PBS, detached, and resuspended in PBS+0.1% (w/v) glucose at room temperature. Cells were then distributed (80 µg of proteins per well) into a 96-well microplate (Wallac, Perkin Elmer, Monza, Italy) and incubated in the presence or absence of increasing concentrations of ligands for 2 min before the addition of the luciferase substrate Coelenterazine 400a (5 µM; Biotium, Hayward, CA). BRET signal between Rluc8 and GFP^10 was measured immediately after the addition of the Rluc substrate in the microplate reader. The BRET signal was calculated as the ratio of the light emitted by GFP^10 (510–540 nm) over the light emitted by Rluc8 (370–450 nm). The changes in BRET induced by the ligands were expressed as Òagonist-induced BRETÓ, obtained by subtracting the BRET signal detected in the presence of PBS by the BRET signal detected in the presence of the specific ligand.
as §1
This recorded real time conformational changes between the α and the βγ subunits within the Gq protein, where a decrease of the BRET signal provoked by agonist-induced receptor activation is indicative of a conformational reorganization leading the Gα-Gβγ interface to open, reflects the initial event of Gq protein activation, [23] (Figure 6A).

[3] = biological target: T2, E129V mutant human TP receptor (Homo sapiens, UniProt P21731, E129V); parameters: method as in PMID 20383734; conditions: E129V vs WT; cited from earlier work
T2 construct: expressed in transfected cells; host or cells: HEK293
T2 sequence (P21731 1-343 E129V): T1 sequence (P21731 1-343) with E129V

## CCCCC[C@H](O)/C=C/[C@@H]1[C@@H](C/C=C\CCCC(=O)O)[C@H]2CO[C@@H]1C2 (relative stereo) [U46619, [1R-[1α,4α,5β(Z),6α(1E,3S*)]]-7-[6-(3-hydroxy-1-octenyl)-2-oxabicyclo[2.2.1]hept-5-yl]-5-heptenoic acid]
[1]; no Gαq overexpression
  Emax, total IP: 12374±8 dpm/well
[1]
  EC50: 98.7 ± 70 nM
[2]; Gαq-Rluc8/GFP10-Gγ2/Gβ1, 2 min ligand
  EC50: 345 ± 14 nM
[2]
  Emax, agonist-induced BRET: −0.07±3
[3]
  Fold lower EC50 than WT, total IP formation: 10 fold

From PMC3610872, “Full and Partial Agonists of Thromboxane Prostanoid Receptor Unveil Fine Tuning of Receptor Superactive Conformation and G Protein Activation” (PLoS ONE, 2013)
